Reference: patent US8003847B2, “Non-human mutant mammals deficient in Sigma receptors and their applications” (Laboratorios Del Dr. Esteve, S.A., priority 2002, dated 2011)

Columns and labels:
type-2 Sigma receptors = type-2 Sigma receptors (Homo sapiens, UniProt Q5BJF2); conditions: type-2 Sigma receptor, result in words; cited from earlier work
type-1 Sigma receptors = type-1 Sigma receptors (Homo sapiens, UniProt Q99720); conditions: type-1 Sigma receptor, result in words; cited from earlier work
mouse Sigma-1 receptor = assay: specific binding test to the [3H]-pentazocine ligand, brain membrane fraction; conditions: brain membranes of homozygous mutant (-/-) mice; 37° C., 130-170 minutes
Protocol: Fourthly, the activity (function) of the mouse Sigma-1 receptor was evaluated by a specific binding test to the [^3H]-pentazocine ligand. Briefly, the brains of mutant (−/−), heterozygous (+/−) and wild (+/+) mice were homogenised and the homogenisations ere centrifuged several times at different speeds to obtain the membrane fraction. Then samples of the membrane fraction obtained were incubated with the [^3H]-pentazocine radioligand in optimal binding conditions for this receptor (37° C., for 130-170 minutes), filtrating the samples, washing them and reading the radioactivity count present in the filtrate (see DeHaven-Hudkins D. L., Fleissner L. C., Ford-Rice, F. Y. (1992) Characterization of the binding of [3H]-Pentazocine to sigma recognition sites in guinea pigs brain. European Journal of Pharmacology 227:371-378, hereinafter DeHaven-Hudkins).

Sigma-1 receptor = Sigma-1 receptor (Mus musculus, UniProt O55242); conditions: in vivo
Protocol: Fifthly, the function of the Sigma-1 receptor was evaluated according to known behavioral paradigms and protocols.

Sequence of type-1 Sigma receptors (Q99720 whole entry): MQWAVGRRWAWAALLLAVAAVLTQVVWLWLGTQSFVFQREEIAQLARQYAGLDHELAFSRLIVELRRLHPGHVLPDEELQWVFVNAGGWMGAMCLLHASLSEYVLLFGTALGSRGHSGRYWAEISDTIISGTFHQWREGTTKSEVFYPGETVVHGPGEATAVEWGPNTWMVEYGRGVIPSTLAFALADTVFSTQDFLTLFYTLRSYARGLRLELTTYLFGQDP
Sequence of type-2 Sigma receptors (Q5BJF2 whole entry): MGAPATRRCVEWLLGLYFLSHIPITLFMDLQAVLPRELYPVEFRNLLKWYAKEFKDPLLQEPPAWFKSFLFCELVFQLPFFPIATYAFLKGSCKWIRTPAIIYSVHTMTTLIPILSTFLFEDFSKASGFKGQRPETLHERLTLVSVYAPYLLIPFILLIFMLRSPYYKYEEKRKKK
Sequence of Sigma-1 receptor (O55242 whole entry): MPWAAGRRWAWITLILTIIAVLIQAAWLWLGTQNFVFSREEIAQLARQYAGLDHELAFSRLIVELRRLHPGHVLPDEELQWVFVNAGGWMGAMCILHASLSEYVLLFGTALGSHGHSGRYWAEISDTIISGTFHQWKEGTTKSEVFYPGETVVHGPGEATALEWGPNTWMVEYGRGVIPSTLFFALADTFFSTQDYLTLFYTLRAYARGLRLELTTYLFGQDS

Compound: CC(C)=CCN1CCC2(C)c3cc(O)ccc3CC1C2C (single isomer, unassigned; (+)) [(+)-pentazocine]
- affinity (type-2 Sigma receptors): low affinity
- affinity (type-1 Sigma receptors): high affinity

Compound: [3H]c1cc2c(c([3H])c1O)[C@@]1(C)CCN(CC=C(C)C)[C@@H](C2)[C@H]1C [[^3H]-pentazocine]
- specific binding of radioligand (activity/function of receptor) (mouse Sigma-1 receptor): lack of activity (function)

Compound: O=C(CCCN1CCC(O)(c2ccc(Cl)cc2)CC1)c1ccc(F)cc1 [haloperidol]
- affinity (type-2 Sigma receptors): high to moderate affinity

Compound: C[C@@H]1CN(CCCn2c3ccccc3c3ccccc32)C[C@H](C)N1 [rimcazole]
- affinity (type-1 Sigma receptors): high affinity

Compound: (+)-SKF10047
- affinity (type-2 Sigma receptors): low affinity

Compound: N-allylnormetazocine [SKF-10047]
- hyperactivity (hypermotility) response (Sigma-1 receptor): Statistically significant differences have only been observed with wild mice
- affinity (type-1 Sigma receptors): high affinity
